≈ marks a conversion by molar mass, not a printed value. Where “and” joins values, the source holds several entries; their conditions need not be identical. Equal entries are not always repeated.
What was measured:
[1] = Solubility in pre-saturated n-octanol or water, visual inspection; format: physicochemical
Protocol: N-Octanol and water were mutually pre-saturated by vigorously stirring a mixture of both solvents for up to 12 h and the mixture was allowed to separate. Solubility in each solvent was determined by adding 10 μL of 20, 40, 200, 1000 and 5000 μg/mL of C10 in DMSO to the pre-saturated n-octanol or water. After the sample was vortexed for 10 sec, the sample was centrifuged for 10 min at ca. 3000 rpm. A visual inspection was made to determine if the sample was clear or if a pellet had formed on the bottom of the tube.

[2] = system: S. cerevisiae diploid (mutant strain/ATCC200901); assay: MIC of diploids from yeast mating experiment; format: cell-based, Saccharomyces cerevisiae
Protocol: The minimal inhibitory concentration (MIC) was essentially performed following the NCCLS guidelines outlined in the M27 protocol with the exception of using YPD or synthetic defined media (SDM).
The haploid mutants derived from S. cerevisiae ATCC201388 were mixed with S. cerevisiae ATCC 200901, and were incubated on YPD agar plates at 30° C. for 4 h. The cell mixture was streaked out on synthetic defined media agar (BD, NJ USA) without the amino acids lysine and methionine, which are selective for diploids.

[3] = system: Trichophyton rubrum (T. rubrum); assay: TurChub zone of inhibition assay through full thickness human nail; format: cell-based; conditions: 40 μL/cm^2 per day over five days
Protocol: The aim of the current study was to assess and compare the perungual absorption of C10 in a simple vehicle using MedPharm's TurChub® model (see http://www.medpharm.co.uk; specificaly http://www.medpharm.co.uk/downloads/Skin%20and%20nail%2dec%202003.pdf viewed Feb. 14, 2006). in a full scale experiment. Six replicates involving C10 were conducted and Formulations Y (8% ciclopirox w/w in commercial lacquer) and Z (Loceryl, 5% amorolfine w/v in commercial lacquer) were used as the reference formulations.
A dose of 40 μL/cm^2 of the test compound C10 in 50:50 propylene glycol:ethyl acetate was applied to a full thickness nail sample each day over a total duration of five days. Both the reference formulations were also applied at the same dose.
Placebo, test item C10 in vehicle and the reference formulations Y and Z were tested for their inhibition of Trichophyton rubrum (T. rubrum) growth after penetration through a full thickness human nail using a zone of inhibition measurement.

19 test strains of fungi = assay: Antifungal MIC, microbroth dilution (NCCLS); format: cell-based; conditions: MIC = over 90% reduction of growth, read-out: MIC values against all fungi tested
Description: (C10) is a novel compound in development for use as a topical antifungal treatment. The purpose of this study was to determine the minimum inhibitory concentration (MIC) for (C10) against 19 test strains of fungi including: Aspergillus fumigatus (A. fumigatus), Candida Albicans (C. albicans, both fluconazole sensitive and resistant strains), Candida glabrata (C. glabrata), Candida krusei (C. krusei), Cryptococcus neoformans (C. neoformans), Candida parapsilosis (C. parapsilosis), Candida tropicalis (C. tropicalis), Epidermophyton floccosum (E. floccosum), Fusarium solani (F. solani), Malassezia furfur (M. furfur), Malassezia pachydermatis (M. pachydermatis), Malassezia sympodialis (M. sympodialis), Microsporum audouinii (M. audouinii), Microsporum canis (M. canis), Microsporum gypseum (M. gypseum), Trichophyton mentagrophytes (T. mentagrophytes), Trichophyton rubrum (T. rubrum), Trichophyton tonsurans (T. tonsurans). Fungal growth was evaluated after exposure to different concentrations of (C10). In addition, the MIC for (C10) against T. rubrum in the presence of 5% keratin powder and the minimum fungicidal concentration (MFC) for (C10) against T. rubrum and T. mentagrophytes were also determined. Ciclopirox and/or terbinafine and/or fluconazole and/or itraconazole were used as comparators and tested in a similar manner. These studies were conducted at NAEJA Pharmaceutical, Inc. […]

[4] = system: S. cerevisiae strain ATCC201388; assay: Frequency of spontaneous resistance; format: cell-based, Saccharomyces cerevisiae; conditions: spontaneous mutants, at 4×MIC
Protocol: Resistant mutants appeared after 2 d incubation at 30° C. Frequency of resistance was determined by dividing the number of resistant mutants by the total number of cells plated as determined by plating dilutions of the overnight culture on YPD plates.

[5] = Water solubility (table of physicochemical properties)

OB1OCc2cc(F)ccc21 [C10, 5-fluorobenzo[c][1,2]oxaborol-1(3H)-ol]
solubility in octanol and water, in words ([1]; over the concentration range tested): very good | Solubility, Octanol Visual ([1]; targeted conc 0.800 μg/mL): Clear | Solubility, Water Visual ([1]; targeted conc 0.800 μg/mL): Clear | Solubility, Octanol Visual ([1]; targeted conc 4.00 μg/mL): Clear | Solubility, Water Visual ([1]; targeted conc 4.00 μg/mL): Clear | Solubility, Octanol Visual ([1]; targeted conc 20.0 μg/mL): Clear | Solubility, Water Visual ([1]; targeted conc 20.0 μg/mL): Clear | Solubility, Octanol Visual ([1]; targeted conc 100 μg/mL): Clear | Solubility, Water Visual ([1]; targeted conc 100 μg/mL): Clear | MIC ([2]; Saccharomyces cerevisiae, ATCC200901): 32 µg/mL | MIC ([2]; Saccharomyces cerevisiae, ATCC 200901 / ATCC 201388): 0.5 µg/mL | MIC ([2]; diploid (G)/ATCC200901): 32 µg/mL | MIC ([2]; diploid (H)/ATCC200901): 32 µg/mL | MIC of diploids from C10 mutants versus diploid from parental strain ([2]; three mutants mated with ATCC 200901): 64 fold | zone of inhibition, result in words ([3]; full thickness nail): superior results vs. the commercial reference formulations Y and Z | Zones of inhibition ([3]; C10 10% w/v solution, second experiment (FIG. 7), six cells): 74% and 86% and 100% and 82% and 84% | MIC (19 test strains of fungi): 0.25 to 2 µg/mL (≈ 1.65 to 13.2 µM) | frequency of resistance [4]: 1.2×10^−7 | solubility [5]: > 100 µg/mL
